# Measurements published in ChEMBL document CHEMBL4270538, “Targeting prohibitin with small molecules to promote melanogenesis and apoptosis in melanoma cells” (Eur J Med Chem, 2018).
# pIC50: −log10 of the molar value. Active and inactive are the calls of the source. The rule behind the calls is not given here.
# Experiments:
# [1] = molecular target: Prohibitin-2 (Homo sapiens) (UniProt Q99623); assay: Induction of PHB2-mediated melanogenesis in human HBL cells assessed as pigmentation at 1 uM after 10 days relative to control; format: cell-based
# Sequence of Prohibitin-2 (Homo sapiens) (Q99623 whole entry): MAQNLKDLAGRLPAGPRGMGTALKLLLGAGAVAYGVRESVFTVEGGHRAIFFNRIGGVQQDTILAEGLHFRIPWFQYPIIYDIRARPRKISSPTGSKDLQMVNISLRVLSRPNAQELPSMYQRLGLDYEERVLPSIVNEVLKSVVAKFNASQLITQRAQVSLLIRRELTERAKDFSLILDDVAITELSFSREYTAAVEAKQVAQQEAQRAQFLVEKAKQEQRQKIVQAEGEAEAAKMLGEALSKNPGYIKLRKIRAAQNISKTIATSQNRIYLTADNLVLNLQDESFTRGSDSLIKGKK
# [2] = molecular target: Prohibitin-2 (Homo sapiens) (UniProt Q99623); assay: Induction of PHB2-mediated melanogenesis in human HBL cells assessed as pigmentation at 10 uM after 10 days relative to control; format: cell-based
# [3] = molecular target: T1, Prohibitin 1 (Homo sapiens) (UniProt P35232); assay: Downregulation of PHB1 in human HBL cells at 1 to 10 uM after 24 hrs by Western blot analysis; format: cell-based
# T1 sequence (whole entry): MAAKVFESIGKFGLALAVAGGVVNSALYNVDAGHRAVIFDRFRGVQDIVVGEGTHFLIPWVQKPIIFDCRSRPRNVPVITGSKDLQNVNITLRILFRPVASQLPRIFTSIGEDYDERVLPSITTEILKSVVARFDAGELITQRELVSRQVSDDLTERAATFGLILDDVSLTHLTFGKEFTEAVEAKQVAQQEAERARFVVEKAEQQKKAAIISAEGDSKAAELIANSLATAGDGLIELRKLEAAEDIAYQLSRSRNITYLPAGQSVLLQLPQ
# [4] = molecular target: Prohibitin-2 (Homo sapiens) (UniProt Q99623); assay: Binding affinity to PHB2 in human HBL cells assessed as LC3-2 accumulation at 1 to 10 uM after 24 hrs by Western blot analysis; format: cell-based
# [5] = molecular target: Prohibitin-2 (Homo sapiens) (UniProt Q99623); assay: Binding affinity to PHB2 in human HBL cells assessed as upregulation of MITF protein expression at 1 to 10 uM after 24 hrs by Western blot analysis; format: cell-based
# [6] = molecular target: Prohibitin-2 (Homo sapiens) (UniProt Q99623); assay: Binding affinity to PHB2 in human HBL cells assessed as upregulation of tyrosinase protein expression at 1 to 10 uM after 24 hrs by Western blot analysis; format: cell-based
# PC-3 [7] = assay: Inhibition of cell proliferation in human PC3 cells at 1 uM after 72 hrs by MTS assay relative to control; format: functional; details: PC-3, 72 h
# LNCaP [8] = assay: Inhibition of cell proliferation in human LNCAP cells at 1 uM after 72 hrs by MTS assay relative to control; format: functional
# [9] = Inhibition of cell proliferation in human EPC cells at 1 uM after 72 hrs by MTS assay relative to control; format: functional
# HT-29 [10] = assay: Inhibition of cell proliferation in human HT-29 cells at 1 uM after 72 hrs by MTS assay relative to control; format: functional; details: HT-29, 72 h
# HCT-116 [11] = assay: Inhibition of cell proliferation in human HCT116 cells at 1 uM after 72 hrs by MTS assay relative to control; format: functional; details: HCT-116, 72 h
# MCF7 [12] = assay: Inhibition of cell proliferation in human MCF7 cells at 1 uM after 72 hrs by MTS assay relative to control; format: functional; details: MCF7, 72 h
# HL-60 [13] = assay: Inhibition of cell proliferation in human HL60 cells at 1 uM after 72 hrs by MTS assay relative to control; format: functional; details: HL-60, 72 h
# KB [14] = assay: Inhibition of cell proliferation in human KB cells at 1 uM after 72 hrs by MTS assay relative to control; format: functional
# HBL [15] = assay: Inhibition of cell proliferation in human HBL cells at 1 uM after 72 hrs by MTS assay relative to control; format: functional
# PC-3 [16] = assay: Inhibition of cell proliferation in human PC3 cells at 10 uM after 72 hrs by MTS assay relative to control; format: functional; details: PC-3, 72 h
# LNCaP [17] = assay: Inhibition of cell proliferation in human LNCAP cells at 10 uM after 72 hrs by MTS assay relative to control; format: functional
# [18] = Inhibition of cell proliferation in human EPC cells at 10 uM after 72 hrs by MTS assay relative to control; format: functional
# HT-29 [19] = assay: Inhibition of cell proliferation in human HT-29 cells at 10 uM after 72 hrs by MTS assay relative to control; format: functional; details: HT-29, 72 h
# HCT-116 [20] = assay: Inhibition of cell proliferation in human HCT116 cells at 10 uM after 72 hrs by MTS assay relative to control; format: functional; details: HCT-116, 72 h
# MCF7 [21] = assay: Inhibition of cell proliferation in human MCF7 cells at 10 uM after 72 hrs by MTS assay relative to control; format: functional; details: MCF7, 72 h
# HL-60 [22] = assay: Inhibition of cell proliferation in human HL60 cells at 10 uM after 72 hrs by MTS assay relative to control; format: functional; details: HL-60, 72 h
# KB [23] = assay: Inhibition of cell proliferation in human KB cells at 10 uM after 72 hrs by MTS assay relative to control; format: functional
# HBL [24] = assay: Inhibition of cell proliferation in human HBL cells at 10 uM after 72 hrs by MTS assay relative to control; format: functional
# HL-60 [25] = assay: Inhibition of cell proliferation in human HL60 cells after 72 hrs by MTS assay; format: functional, cell-based; details: HL-60, 72 h
# KB [26] = assay: Inhibition of cell proliferation in human KB cells after 72 hrs by MTS assay; format: functional, cell-based
# [27] = molecular target: Prohibitin-2 (Homo sapiens) (UniProt Q99623); assay: Binding affinity to PHB2 in human HBL cells assessed as upregulation of ERK phosphorylation at 1 to 10 uM after 24 hrs by Western blot analysis; format: cell-based
# [28] = molecular target: RAC-alpha serine/threonine-protein kinase (Homo sapiens) (UniProt P31749); assay: Inhibition of Akt phosphorylation in human HBL cells at 1 to 10 uM after 24 hrs by Western blot analysis; format: cell-based
# Sequence of RAC-alpha serine/threonine-protein kinase (Homo sapiens) (P31749 whole entry): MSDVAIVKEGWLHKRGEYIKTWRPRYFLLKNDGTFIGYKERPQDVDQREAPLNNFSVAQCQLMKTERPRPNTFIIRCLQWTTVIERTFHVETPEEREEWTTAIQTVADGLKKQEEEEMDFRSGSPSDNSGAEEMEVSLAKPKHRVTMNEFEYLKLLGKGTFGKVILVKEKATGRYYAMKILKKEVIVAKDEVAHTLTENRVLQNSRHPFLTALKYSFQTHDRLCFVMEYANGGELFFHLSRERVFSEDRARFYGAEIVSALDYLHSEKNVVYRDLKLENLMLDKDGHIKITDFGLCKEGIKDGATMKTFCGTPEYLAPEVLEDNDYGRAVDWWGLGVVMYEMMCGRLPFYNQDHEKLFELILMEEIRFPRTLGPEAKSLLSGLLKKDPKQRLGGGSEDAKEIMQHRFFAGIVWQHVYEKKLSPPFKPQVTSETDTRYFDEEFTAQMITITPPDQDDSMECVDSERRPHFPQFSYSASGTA
# HBL [29] = assay: Induction of apoptosis in human HBL cells at 1 to 10 uM after 48 hrs by Annexin V-PE/7-AAD staining based flow cytometry; format: functional, cell-based
# Homo sapiens [30] = organism: Homo sapiens; assay: Induction of apoptosis in human MM043 cells at 1 to 10 uM after 48 hrs by Annexin V-PE/7-AAD staining based flow cytometry; format: functional, cell-based
# Homo sapiens [31] = organism: Homo sapiens; assay: Induction of apoptosis in human MM162 cells at 1 to 10 uM after 48 hrs by Annexin V-PE/7-AAD staining based flow cytometry; format: functional, cell-based
smiles,measurement,setting,value
NCCOCCOCCNc1nc(NCc2cccc(F)c2)nc(Oc2c(F)c(F)c(F)c(F)c2F)n1,fold change (FC),[1],1.05
same,fold change (FC),[2],1.25
same,Activity,[3],Active
same,Activity,[4],Active
same,Activity,[5],Active
same,Activity,[6],Active
same,inhibition at 1 µM,PC-3 [7],15%
same,inhibition at 1 µM,LNCaP [8],11%
same,inhibition at 1 µM,[9],27%
same,inhibition at 1 µM,HT-29 [10],12%
same,inhibition at 1 µM,HCT-116 [11],10%
same,inhibition at 1 µM,MCF7 [12],11%
same,inhibition at 1 µM,HL-60 [13],31%
same,inhibition at 1 µM,KB [14],29%
same,inhibition at 1 µM,HBL [15],9%
same,inhibition at 10 µM,PC-3 [16],52%
same,inhibition at 10 µM,LNCaP [17],32%
same,inhibition at 10 µM,[18],58%
same,inhibition at 10 µM,HT-29 [19],20%
same,inhibition at 10 µM,HCT-116 [20],36%
same,inhibition at 10 µM,MCF7 [21],27%
same,inhibition at 10 µM,HL-60 [22],59%
same,inhibition at 10 µM,KB [23],89%
same,inhibition at 10 µM,HBL [24],18%
same,pIC50,HL-60 [25],4.82
same,pIC50,KB [26],4.48
same,Activity,[27],Active
same,inhibition,[28],Active
CN(C)C1CCN(c2nc(Oc3c(F)c(F)c(F)c(F)c3F)nc(N3CCCc4ccccc4C3)n2)CC1,fold change (FC),[1],0.83
same,fold change (FC),[2],1.51
same,Activity,HBL [29],Active
same,Activity,Homo sapiens [30],Active
same,Activity,Homo sapiens [31],Active
